Measurements reported in the METLIN SMRT retention time set (Domingo-Almenara et al. 2019).

Assay: gradient 5% acetonitrile 3 min, to 50% in 2 min, to 85% in 15 min, held 3 min, 100 µL/min
Details: column: Zorbax Extend-C18 2.1 x 50 mm; eluents: water / acetonitrile, 0.1% formic acid
Summary of the method: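 Pure standards were run in mixtures of ~100 molecules by HPLC coupled to a quadrupole time-of-flight mass spectrometer. The column was a Zorbax Extend-C18 (2.1 × 50 mm, 1.8 μm) at 100 μL/min, with water and acetonitrile each containing 0.1% formic acid, in positive and negative ionization mode. Dead and dwell volumes were 40 μL and 900 μL. Retention time was taken from computationally picked adduct peaks, each manually inspected, with data collected over 3 months.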

Row | RP-LC retention time | SMILES
1 | 1150 s | Cc1cc(C)cc(NC(=O)C2CCN(c3nccnc3Sc3cccc(C)c3)CC2)c1
2 | 765 s | CN1C(=O)C2(CCN(C(=O)c3cccc(F)c3)C2)c2ccccc21 (stereo not given)
3 | 772 s | CCc1nnc(-c2ccc(NC(=O)COc3ccccc3F)cc2)o1
4 | 952 s | CN1C(=O)c2cc(S(=O)(=O)Nc3cccc(Cl)c3)ccc2Oc2cccnc21
5 | 791 s | O=C(COc1ccc(F)cc1)N1CCC(c2noc(C3CC3)n2)C1 (stereo not given)
6 | 1040 s | COc1cc(OC)cc(-c2noc(CCn3nc(-c4cccc(Cl)c4)ccc3=O)n2)c1
7 | 616 s | O=C(NC1CCN(c2cc(-c3cccnc3)[nH]n2)CC1)c1ccc2cc[nH]c2c1
8 | 608 s | CN1CCN(C(=O)C2(C)CC(c3ccccc3)=NO2)CC1 (stereo not given)
9 | 934 s | CCCOC(=O)C1=C(C)NC2=C(C(=O)C(C(=O)OC)C(C)C2)C1c1cccc(OC)c1 (stereo not given)
10 | 604 s | CN(C)S(=O)(=O)c1ccc(-c2nnc(C(=O)NCc3ccncc3)o2)cc1
11 | 858 s | O=C(Nc1nc(-c2ccccc2Cl)cs1)c1cccnc1
12 | 748 s | CC(=O)N1CCc2cc(N3CC(C(=O)NCc4ccc(C(F)(F)F)cc4)CC3=O)ccc21 (stereo not given)
13 | 1000 s | O=C(Cn1ccc2ccc(N3CCOCC3)nc21)N1CCN(c2ccc(Cl)cc2)CC1
14 | 641 s | CCCN1C(=O)C(CC(=O)N2CCOCC2)Sc2ncccc21 (stereo not given)
15 | 849 s | Cc1ccc2nc(-c3cccc(Br)c3)c(Nc3ccccc3C)n2c1
16 | 966 s | O=C(Nc1ccc2c(c1)OCCO2)N1c2ccccc2CC1c1nc(C2CC2)no1 (stereo not given)
17 | 674 s | O=C(CCCS(=O)(=O)c1ccccc1)Nc1nnc(-c2ccsc2)o1
18 | 968 s | CCCn1cc(C(=O)NCCC(C)C)c2nn(-c3ccccc3)c(=O)c-2c1
19 | 787 s | Cc1ccc(C)c(S(=O)(=O)N2CCC3(CC2)NCCN=C3NCc2ccccc2C)c1
20 | 991 s | CCOc1cc(=O)n2c(c1C(=O)OCc1ccc(Cl)cc1)CCCCC2
21 | 708 s | O=C1c2oc3ccccc3c(=O)c2C(c2cccnc2)N1c1nccs1 (stereo not given)
22 | 909 s | CC(C)NC(=O)N1CCCC(c2cccc(C(=O)NCc3ccccc3Cl)c2)C1 (stereo not given)

Row | RP-LC retention time | SMILES
23 | 653 s | COc1ccc(NC(=O)COc2cc(C)nc(N3CCCC3)n2)cc1Cl
24 | 847 s | CS(=O)(=O)Nc1ccc(C2(C(=O)NCc3ccc(F)cc3Cl)CCC2)cc1
25 | 755 s | CCN1CCn2cc(S(=O)(=O)Nc3cc(F)cc(F)c3)cc2C1=O
26 | 618 s | COc1ccc(N2CCN(C(=O)C3CCN(c4nc(NC(C)=O)ns4)CC3)CC2)cc1
27 | 1170 s | CCOc1ccc(-n2c(=O)c3sccc3n(Cc3nc(-c4ccc(CC)cc4)no3)c2=O)cc1
28 | 612 s | Cn1cc(-c2cc3n(n2)CCC(=O)N3CC(=O)NCCN2CCOCC2)c2ccccc21
29 | 965 s | COC(=O)c1nnn(-c2ccc(C)c(Cl)c2)c1C(=O)OC
30 | 823 s | CC(C)CN1C(=O)CSc2cnn(CC(=O)N3CCN(c4ccccc4)CC3)c(=O)c21
31 | 661 s | O=C(c1ccc(Br)cc1)N1CCc2[nH]nc(C(=O)N3CCOCC3)c2C1
32 | 950 s | O=C(Cn1cccc(-c2nc(-c3ccc(F)cc3)no2)c1=O)Nc1cccc(Br)c1
33 | 738 s | O=S1(=O)N=CN(c2ccc(F)cc2)c2ncccc21
34 | 1200 s | Cc1cccc(S(=O)(=O)N2CCCC2c2nc(-c3cccc(C(F)(F)F)c3)no2)c1 (stereo not given)
35 | 714 s | CC(C)c1ccc(NC(=O)C2CCN(c3cncnc3N3CCOCC3)CC2)cc1
36 | 1040 s | CCC(C)NC(=O)c1nnn(Cc2cccc(Cl)c2)c1-n1cccc1 (stereo not given)
37 | 1270 s | CCc1ccc(-n2ncc3c(=O)n(Cc4nc(-c5ccc(Cl)cc5)no4)cnc32)cc1
38 | 572 s | CC(C)Cn1c(=O)c(N2CCN(C(=O)NCc3ccccc3)CC2)nc2ccncc21
39 | 676 s | CCNc1cc(N2CCCC(CCC(=O)N3CCC(C)CC3)C2)ncn1 (stereo not given)
40 | 706 s | O=C(Cn1nc2c3cc(F)ccc3ncn2c1=O)Nc1ccc(F)c(Cl)c1
41 | 845 s | CCOC(=O)c1ccc(N2C=C(C(=O)N3CCCC3)S(=O)(=O)c3ccc(F)cc32)cc1
42 | 947 s | CCCc1nc(-c2c(C)cc(C)nc2NC(=O)c2ccc(F)c(F)c2)no1
43 | 677 s | O=C(c1noc2ccc(S(=O)(=O)N3CCN(c4ccccn4)CC3)cc12)N1CCCC1
44 | 1210 s | COc1cccc(CCC(=O)Nc2ccc3c(c2)Sc2ncccc2C(=O)N3C)c1

Row | RP-LC retention time | SMILES
45 | 631 s | Fc1ccc(OCCc2noc(C3CCCN3)n2)cc1 (stereo not given)
46 | 624 s | Cc1cc(C)n(-c2ccnc(N3CCN(CC(=O)NC(C)C)CC3)n2)n1
47 | 681 s | COc1ccc(NC(=O)Cn2cnc3nc(N4CCCC(C(=O)NC5CC5)C4)sc3c2=O)cc1 (stereo not given)
48 | 672 s | COc1cccc(NC(=O)Nc2cccc(-c3ccc(N4CCOCC4)nn3)c2)c1
49 | 663 s | CS(=O)(=O)N1CCC(C(=O)NCC2CCN(C(=O)Oc3ccccc3)CC2)CC1
50 | 639 s | COc1ccc(/C=C/c2nc(NCCCN(C)C)c3ccccc3n2)cc1
51 | 588 s | CN(C)CC(=O)N1CCc2[nH]nc(-c3ccc(F)cc3)c2C1
52 | 789 s | O=C(NC1CCCCCC1)C1CCc2sc(C(=O)N3CCOCC3)cc2C1 (stereo not given)
53 | 944 s | COc1ccccc1NC(=O)Cn1nc2cc(-c3ccccc3)nc(C)n2c1=O
54 | 1100 s | CCOC(=O)c1ccccc1NC(=O)C1CCCN(c2cc(-n3cccn3)ncn2)C1 (stereo not given)
55 | 884 s | O=C(CSc1ccncc1)Nc1ccc(OCc2nnc(-c3ccccc3)o2)cc1
56 | 944 s | CCn1c(=O)sc2cc(S(=O)(=O)N3CCC(C(=O)N4CCc5ccccc5C4)CC3)ccc21
57 | 831 s | Cc1cccc(NC(=O)Cn2c(=O)n(-c3ccccc3)c(=O)c3c2cc(C)n3C)c1
58 | 747 s | Cc1nc(-c2ccc(F)cc2)sc1C(=O)N1CCC(C(C)C(=O)NC2CC2)CC1 (stereo not given)
59 | 560 s | Cc1nn(C)c2c(N3CCC(C(=O)N4CCN(CC(=O)N5CCOCC5)CC4)CC3)nccc12
60 | 1050 s | Cc1nn(-c2ccccc2)c(C)c1S(=O)(=O)N1CCC(C(=O)NC2CCCCCCC2)CC1
61 | 1180 s | CCc1ccc(-c2ccc(=O)n(CCc3nc(-c4cccc(C)c4)no3)n2)cc1
62 | 649 s | Cc1nnsc1C(=O)NCC(F)(F)F
63 | 658 s | CC(=O)N1CCCc2cc(S(=O)(=O)N3CCC(C(=O)NCC4CCCO4)CC3)ccc21 (stereo not given)
64 | 771 s | COc1cc2c(cc1CNC(=O)Cn1cc(C(C)=O)c3ccccc31)OCCCO2

Row | SMILES | RP-LC retention time
65 | COc1ccc2c(c1)C1(CCN(S(=O)(=O)c3ccccc3F)C1)C(=O)N2C (stereo not given) | 901 s
